#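 Compound exposure: 48 hours, 5 concentrations, 96-well plates. Abbreviation: GI50, concentration required for 50% inhibition of growth.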 The source made the active and inactive calls. Rule as the data show it: active = GI50 up to about 1.1 µM and inactive = higher.
# Assays:
# Test in all cases: NCI tumour cell line growth inhibition, 48 h
# SF-295 = system: SF-295
# KM12 = system: KM12
# SF-539 = system: SF-539
# RXF 393 = system: RXF 393
# HCT-15 = system: HCT-15
# M19-MEL = system: M19-MEL
# SNB-75 = system: SNB-75
# CAKI-1 = system: CAKI-1
# OVCAR-3 = system: OVCAR-3
# SW-620 = system: SW-620
# SK-MEL-2 = system: SK-MEL-2
# DLD-1 = system: DLD-1
# SNB-19 = system: SNB-19
# IGROV-1 = system: IGROV-1
# UO-31 = system: UO-31
# UACC-62 = system: UACC-62
# MOLT-4 = system: MOLT-4
# HOP-62 = system: HOP-62
# COLO 205 = system: COLO 205
# K562 = system: K562
# U-251 = system: U-251
# KM-20L2 = system: KM-20L2
# OVCAR-8 = system: OVCAR-8
# UACC-257 = system: UACC-257
# HL-60 = system: HL-60
# EKVX = system: EKVX
# 786-0 = system: 786-0
# SK-MEL-5 = system: SK-MEL-5
# TK-10 = system: TK-10
# ACHN = system: ACHN
# HOP-92 = system: HOP-92
# HOP-18 = system: HOP-18
# SN12C = system: SN12C
# NCI-H23 = system: NCI-H23
# OVCAR-5 = system: OVCAR-5
# HT-29 = system: HT-29
# SK-MEL-28 = system: SK-MEL-28
# CCRF-CEM = system: CCRF-CEM
# SF-268 = system: SF-268
# LOX IMVI = system: LOX IMVI
# NCI-H460 = system: NCI-H460
# A549 = system: A549
# LXFL 529 = system: LXFL 529
# SK-OV-3 = system: SK-OV-3
# Malme-3M = system: Malme-3M
# DMS-114 = system: DMS-114
# HCC 2998 = system: HCC 2998
# NCI-H522 = system: NCI-H522
# M14 = system: M14
# RPMI-8226 = system: RPMI-8226
# OVCAR-4 = system: OVCAR-4
# DMS-273 = system: DMS-273
# NCI-H226 = system: NCI-H226
# SNB-78 = system: SNB-78
# HCT-116 = system: HCT-116
# SR = system: SR
# XF498 = system: XF498
structure (smiles),measurement,setting,value
O=S1(=O)[C@H](c2ccccc2)c2c(-c3ccccc3)sc(-c3ccccc3)c2[C@@H]1c1ccccc1,GI50,SF-295,> 100 µM (inactive)
same,GI50,KM12,> 100 µM (inactive)
same,GI50,SF-539,> 100 µM (inactive)
same,GI50,RXF 393,39.8 µM (inactive)
same,GI50,HCT-15,> 100 µM
same,GI50,M19-MEL,> 100 µM (inactive)
same,GI50,SNB-75,26.1 µM (inactive)
same,GI50,CAKI-1,> 100 µM (inactive)
same,GI50,OVCAR-3,> 100 µM (inactive)
same,GI50,SW-620,> 100 µM (inactive)
same,GI50,SK-MEL-2,> 100 µM (inactive)
same,GI50,DLD-1,> 100 µM (inactive)
same,GI50,SNB-19,> 100 µM (inactive)
same,GI50,IGROV-1,> 100 µM (inactive)
same,GI50,UO-31,> 100 µM (inactive)
same,GI50,UACC-62,> 100 µM (inactive)
same,GI50,MOLT-4,> 100 µM (inactive)
same,GI50,HOP-62,> 100 µM (inactive)
same,GI50,COLO 205,> 100 µM (inactive)
same,GI50,K562,> 100 µM (inactive)
same,GI50,U-251,> 100 µM (inactive)
same,GI50,KM-20L2,> 100 µM (inactive)
same,GI50,OVCAR-8,> 100 µM (inactive)
same,GI50,UACC-257,> 100 µM (inactive)
same,GI50,HL-60,> 100 µM (inactive)
same,GI50,EKVX,> 100 µM (inactive)
same,GI50,786-0,38.9 µM (inactive)
same,GI50,SK-MEL-5,71.9 µM (inactive)
same,GI50,TK-10,> 100 µM (inactive)
same,GI50,ACHN,> 100 µM (inactive)
same,GI50,HOP-92,27 µM (inactive)
same,GI50,HOP-18,77.1 µM (inactive)
same,GI50,SN12C,> 100 µM (inactive)
same,GI50,NCI-H23,> 100 µM (inactive)
same,GI50,OVCAR-5,3.81 µM (inactive)
same,GI50,HT-29,> 100 µM (inactive)
same,GI50,SK-MEL-28,> 100 µM (inactive)
same,GI50,CCRF-CEM,> 100 µM (inactive)
same,GI50,SF-268,> 100 µM (inactive)
same,GI50,LOX IMVI,58.5 µM (inactive)
same,GI50,NCI-H460,> 100 µM (inactive)
same,GI50,A549,> 100 µM (inactive)
same,GI50,LXFL 529,88.1 µM (inactive)
same,GI50,SK-OV-3,> 100 µM (inactive)
same,GI50,Malme-3M,94.2 µM (inactive)
same,GI50,DMS-114,> 100 µM (inactive)
same,GI50,HCC 2998,> 100 µM (inactive)
same,GI50,NCI-H522,13 µM (inactive)
same,GI50,M14,> 100 µM (inactive)
same,GI50,RPMI-8226,> 100 µM (inactive)
same,GI50,OVCAR-4,48.1 µM (inactive)
same,GI50,DMS-273,> 100 µM (inactive)
Nc1ccc2ncc(Nc3ccc(F)cc3)nc2c1,GI50,SF-295,> 100 µM (inactive)
same,GI50,KM12,46.3 µM (inactive)
same,GI50,SF-539,90.4 µM (inactive)
same,GI50,HCT-15,> 100 µM
same,GI50,M19-MEL,94.6 µM (inactive)
same,GI50,SNB-75,> 100 µM (inactive)
same,GI50,CAKI-1,> 100 µM (inactive)
same,GI50,OVCAR-3,> 100 µM (inactive)
same,GI50,NCI-H226,37.5 µM (inactive)
same,GI50,SW-620,> 100 µM (inactive)
same,GI50,SK-MEL-2,> 10 µM (inactive)
same,GI50,DLD-1,> 100 µM (inactive)
same,GI50,SNB-19,> 100 µM (inactive)
same,GI50,SNB-78,> 100 µM (inactive)
same,GI50,UO-31,99.3 µM (inactive)
same,GI50,HCT-116,> 100 µM (inactive)
same,GI50,MOLT-4,27.7 µM (inactive)
same,GI50,HOP-62,> 100 µM (inactive)
same,GI50,COLO 205,> 100 µM (inactive)
same,GI50,K562,52.5 µM (inactive)
same,GI50,U-251,> 100 µM (inactive)
same,GI50,OVCAR-8,> 100 µM (inactive)
same,GI50,UACC-257,> 100 µM (inactive)
same,GI50,SR,44 µM (inactive)
same,GI50,XF498,> 100 µM (inactive)
same,GI50,HL-60,> 100 µM (inactive)
same,GI50,EKVX,> 100 µM (inactive)
same,GI50,786-0,> 100 µM (inactive)
same,GI50,SK-MEL-5,34.9 µM (inactive)
same,GI50,TK-10,> 100 µM (inactive)
same,GI50,ACHN,> 100 µM (inactive)
same,GI50,SN12C,> 100 µM (inactive)
same,GI50,NCI-H23,> 100 µM (inactive)
same,GI50,OVCAR-5,84.5 µM (inactive)
same,GI50,HT-29,> 100 µM (inactive)
same,GI50,SK-MEL-28,> 100 µM (inactive)
same,GI50,CCRF-CEM,56.8 µM (inactive)
same,GI50,SF-268,> 100 µM (inactive)
same,GI50,LOX IMVI,> 100 µM (inactive)
same,GI50,NCI-H460,> 100 µM (inactive)
same,GI50,A549,> 100 µM (inactive)
same,GI50,Malme-3M,> 100 µM (inactive)
same,GI50,DMS-114,85.3 µM (inactive)
same,GI50,HCC 2998,> 100 µM (inactive)
same,GI50,NCI-H522,> 100 µM (inactive)
same,GI50,M14,> 100 µM (inactive)
same,GI50,RPMI-8226,87.3 µM (inactive)
same,GI50,OVCAR-4,> 100 µM (inactive)
same,GI50,DMS-273,> 100 µM (inactive)
Nc1ccc([C@H]2C(=O)N[C@H]3CCC[C@H]32)cc1,GI50,SF-295,> 100 µM (inactive)
same,GI50,KM12,> 100 µM (inactive)
same,GI50,SF-539,> 100 µM (inactive)
same,GI50,RXF 393,> 100 µM (inactive)
same,GI50,HCT-15,> 100 µM
same,GI50,M19-MEL,> 100 µM (inactive)
same,GI50,SNB-75,> 100 µM (inactive)
same,GI50,CAKI-1,> 100 µM (inactive)
same,GI50,OVCAR-3,> 100 µM (inactive)
same,GI50,NCI-H226,> 100 µM (inactive)
same,GI50,SW-620,> 100 µM (inactive)
same,GI50,SNB-19,> 100 µM (inactive)
same,GI50,IGROV-1,> 100 µM (inactive)
same,GI50,UO-31,> 100 µM (inactive)
same,GI50,UACC-62,> 100 µM (inactive)
same,GI50,MOLT-4,> 100 µM (inactive)
same,GI50,COLO 205,> 100 µM (inactive)
same,GI50,K562,> 100 µM (inactive)
same,GI50,OVCAR-8,> 100 µM (inactive)
same,GI50,UACC-257,> 100 µM (inactive)
same,GI50,XF498,> 100 µM (inactive)
same,GI50,HL-60,> 100 µM (inactive)
same,GI50,EKVX,> 100 µM (inactive)
same,GI50,SK-MEL-5,> 100 µM (inactive)
same,GI50,TK-10,> 100 µM (inactive)
same,GI50,SN12C,> 100 µM (inactive)
same,GI50,NCI-H23,> 100 µM (inactive)
same,GI50,HT-29,> 100 µM (inactive)
same,GI50,SK-MEL-28,> 100 µM (inactive)
same,GI50,CCRF-CEM,> 100 µM (inactive)
same,GI50,SF-268,> 100 µM (inactive)
same,GI50,LOX IMVI,> 100 µM (inactive)
same,GI50,A549,> 100 µM (inactive)
same,GI50,SK-OV-3,> 100 µM (inactive)
same,GI50,DMS-114,> 100 µM (inactive)
same,GI50,NCI-H522,> 100 µM (inactive)
same,GI50,M14,> 100 µM (inactive)
same,GI50,RPMI-8226,> 100 µM (inactive)
same,GI50,DMS-273,> 100 µM (inactive)

# Source: ChEMBL document CHEMBL1201862, “PubChem BioAssay data set” (2004)
